The test concerns the target T1, Soluble mouse EPOR chimera proteins (erythropoietin receptor) (Mus musculus, UniProt P14753).
T1 construct: Soluble mouse EPOR chimera proteins; purchased R&D Systems
T1 sequence (P14753 25-249 limits assumed): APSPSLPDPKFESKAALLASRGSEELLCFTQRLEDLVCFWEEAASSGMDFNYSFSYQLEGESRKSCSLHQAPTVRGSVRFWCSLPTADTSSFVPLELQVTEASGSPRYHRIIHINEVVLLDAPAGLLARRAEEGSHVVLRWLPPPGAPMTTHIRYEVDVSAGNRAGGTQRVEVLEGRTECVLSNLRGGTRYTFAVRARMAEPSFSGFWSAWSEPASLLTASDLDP
Description: Surface plasmon resonance (SPR) binding affinity to erythropoietin receptor. The note with it: for Ka: association rate. An excerpt: The SPR technique is to measure interactions between biomolecules in real-time by using an optical principle without specific labeling, and is a system analyzing affinity between two molecules and kinetics, i.e., an association rate (Ka) and a dissociation rate (Kd). In detail, real-time SPR analysis may be performed using Reichert SPR Biosensor SR […] instrument (Reichert Inc., NY, USA). Soluble mouse EPOR chimera proteins (R&D Systems, Minneapolis, Minn., USA) were covalently linked to a carboxymethylated dextran matrix-coated chip (BR-1005-39, Pharmacia Biosensor AB) by an amine coupling procedure using an amine coupling kit (BR-1000-50, GE Healthcare, USA) in accordance with manufacturer's instructions. Each 5 pM, 2.5 pM, and 1.25 pM of the peptide samples of the present disclosure and scrambled peptides were applied at a flow rate of 5 μl/minute, and the experiments were independently performed in duplicate. For signal normalization, DMSO was applied at a flow rate of 5 μl/minute. After each binding cycle, the sensor chip was regenerated by injecting 25 mM of acetic acid at a flow rate of 20 μl/minute.
In general terms: In SPR one partner is held on a chip, and binding of the other changes the refractive index at the surface.

Peptide text beside a SMILES is read from it.

`CC(C)C[C@H](NC(=O)CNC(=O)[C@H](C)N)C(=O)N[C@@H](CCCNC(=N)N)C(=O)N[C@@H](CO)C(=O)N[C@@H](CCCNC(=N)N)C(=O)N[C@@H](C)C(=O)N[C@@H](Cc1c[nH]cn1)C(=O)N[C@@H](CC(C)C)C(=O)N[C@@H](CCCNC(=N)N)C(=O)N[C@@H](CCCNC(=N)N)C(=O)N[C@@H](C)C(=O)N[C@@H](CC(C)C)C(=O)N[C@@H](C)C(=O)O` [ML5-1] (H-AGLRSRAHLRRALA-OH; N-terminus and C-terminus assumed): where the note is “Table 8”, the Ka is given as 4.42 × 10^2 and the “dissociation rate constant (koff)” value is 3.46 × 10^−2.
Regarding `CC[C@H](C)[C@H](NC(=O)[C@H](C)NC(=O)[C@H](CCC(=O)O)NC(=O)[C@H](CCCCN)NC(=O)[C@H](CCC(N)=O)NC(=O)[C@H](C)NC(=O)CNC(=O)[C@H](CC(C)C)NC(=O)[C@H](C)NC(=O)[C@H](CCCNC(=N)N)NC(=O)[C@H](CC(C)C)NC(=O)[C@H](CC(C)C)NC(=O)[C@H](CO)NC(=O)[C@@H](NC(=O)[C@H](CC(C)C)NC(=O)[C@H](CO)NC(=O)[C@H](CCCNC(=N)N)NC(=O)[C@H](CC(C)C)NC(=O)CNC(=O)[C@@H](N)CCCCN)[C@@H](C)CC)C(=O)O` [ML6-1] (H-KGLRSLISLLRALGAQKEAI-OH; N-terminus and C-terminus assumed), where the note is “Table 8”, the Ka is 1.9 × 10^2 and the “dissociation rate constant (koff)” value is 3 × 10^−2.
For `CC(C)C[C@H](NC(=O)[C@H](CCC(=O)O)NC(=O)[C@H](CCCNC(=N)N)NC(=O)[C@H](CC(C)C)NC(=O)[C@H](CC(C)C)NC(=O)[C@H](CCCCN)NC(=O)[C@@H](NC(=O)[C@H](CC(C)C)NC(=O)[C@H](CO)NC(=O)[C@H](CCCNC(=N)N)NC(=O)[C@H](CC(C)C)NC(=O)CNC(=O)[C@H](CO)NC(=O)[C@H](CCC(=O)O)NC(=O)[C@H](C)NC(=O)[C@H](CCCCN)NC(=O)[C@H](CCC(N)=O)NC(=O)[C@@H](NC(=O)[C@H](Cc1c[nH]cn1)NC(=O)[C@@H](N)CCCNC(=N)N)C(C)C)[C@@H](C)O)C(=O)O` [ML2-1] (H-RHVQKAESGLRSLTKLLREL-OH; N-terminus and C-terminus assumed) the same measures were 3.1 × 10^2 and 4.1 × 10^−3.
For the molecule `CC[C@H](C)[C@H](NC(=O)[C@H](C)NC(=O)[C@H](CCC(=O)O)NC(=O)[C@H](CCCCN)NC(=O)[C@H](CCC(N)=O)NC(=O)[C@H](C)NC(=O)CNC(=O)[C@H](CC(C)C)NC(=O)[C@H](C)NC(=O)[C@H](CCCNC(=N)N)NC(=O)[C@H](CC(C)C)NC(=O)[C@H](CC(C)C)NC(=O)[C@@H](NC(=O)[C@@H](NC(=O)[C@H](CC(C)C)NC(=O)[C@H](CO)NC(=O)[C@H](CCCNC(=N)N)NC(=O)[C@H](CC(C)C)NC(=O)CNC(=O)[C@@H](N)CO)[C@@H](C)O)[C@@H](C)O)C(=O)O` [ML6], the “dissociation rate constant (koff)” value (Table 8) is 4.5 × 10^−2.
For `CC(C)[C@H](NC(=O)[C@H](CCCCN)NC(=O)[C@@H](N)[C@@H](C)O)C(=O)N[C@@H](CC(N)=O)C(=O)N[C@@H](Cc1ccccc1)C(=O)N[C@@H](Cc1ccc(O)cc1)C(=O)N[C@@H](C)C(=O)N[C@@H](Cc1c[nH]c2ccccc12)C(=O)N[C@@H](CCCCN)C(=O)N[C@@H](CCCNC(=N)N)C(=O)O` [ML3] (H-TKVNFYAWKR-OH; N-terminus and C-terminus assumed), for the setting “Table 8”, the Ka is recorded as 2.05 × 10^2 and the “dissociation rate constant (koff)” value is recorded as 3 × 10^−3.
With `CC(C)C[C@H](NC(=O)CNC(=O)[C@H](CO)NC(=O)[C@@H](NC(=O)[C@H](C)NC(=O)[C@H](CCCCN)NC(=O)[C@H](CC(=O)O)NC(=O)[C@@H](NC(=O)[C@H](CCC(=O)O)NC(=O)[C@H](CC(C)C)NC(=O)[C@H](CC(=O)O)NC(=O)[C@@H](N)CC(C)C)C(C)C)C(C)C)C(=O)N[C@@H](CCCNC(=N)N)C(=O)N[C@@H](CO)C(=O)N[C@@H](CC(C)C)C(=O)N[C@H](C(=O)N[C@H](C(=O)N[C@@H](CC(C)C)C(=O)N[C@@H](CC(C)C)C(=O)N[C@@H](CCCNC(=N)N)C(=O)N[C@@H](C)C(=O)N[C@@H](CC(C)C)C(=O)NCC(=O)O)[C@@H](C)O)[C@@H](C)O` [ML1-C1] (H-LDLEVDKAVSGLRSLTTLLRALG-OH; N-terminus and C-terminus assumed), where the note is “Table 9”, the Ka turned out to be 1745.7 and the “dissociation rate constant (koff)” value is 0.2617.
In the same order, the values of `CC(C)C[C@H](NC(=O)CNC(=O)[C@H](CO)NC(=O)[C@@H](NC(=O)[C@H](C)NC(=O)[C@H](CCCCN)NC(=O)[C@H](CC(C)C)NC(=O)[C@@H](NC(=O)[C@H](Cc1c[nH]cn1)NC(=O)[C@H](CC(C)C)NC(=O)[C@H](CCC(N)=O)NC(=O)[C@@H](N)CC(C)C)C(C)C)C(C)C)C(=O)N[C@@H](CC(C)C)C(=O)N[C@H](C(=O)N[C@@H](Cc1c[nH]cn1)C(=O)N[C@H](C(=O)N[C@H](C(=O)N[C@@H](CC(C)C)C(=O)N[C@@H](CC(C)C)C(=O)N[C@@H](CCCCN)C(=O)N[C@@H](C)C(=O)N[C@@H](CC(C)C)C(=O)NCC(=O)O)[C@@H](C)O)[C@@H](C)O)[C@@H](C)O` [ML1-H1] (H-LQLHVLKAVSGLLTHTTLLKALG-OH; N-terminus and C-terminus assumed) are 1.01E+03 and 7.94E−03.
For `CC[C@H](C)[C@H](NC(=O)[C@H](CCSC)NC(=O)[C@@H](NC(=O)[C@H](CC(C)C)NC(=O)[C@@H](NC(=O)[C@H](CC(C)C)NC(=O)[C@H](CC(C)C)NC(=O)CNC(=O)[C@H](CO)NC(=O)[C@@H](NC(=O)[C@H](C)NC(=O)[C@H](CCCCN)NC(=O)[C@H](CC(C)C)NC(=O)[C@@H](NC(=O)[C@H](Cc1c[nH]cn1)NC(=O)[C@H](CC(C)C)NC(=O)[C@H](CCC(N)=O)NC(=O)[C@@H](N)CC(C)C)C(C)C)C(C)C)[C@@H](C)O)[C@@H](C)O)C(=O)N[C@@H](CCCNC(=N)N)C(=O)N[C@@H](CCCNC(=N)N)C(=O)N[C@@H](C)C(=O)N[C@@H](CC(C)C)C(=O)NCC(=O)O` [ML1-H2] (H-LQLHVLKAVSGLLTLTMIRRALG-OH; N-terminus and C-terminus assumed) the same measures were 3434.3 and 1.05E−03.
With `CC(C)C[C@H](NC(=O)CNC(=O)[C@H](CO)NC(=O)[C@@H](NC(=O)[C@H](C)NC(=O)[C@H](CCCCN)NC(=O)[C@H](CC(=O)O)NC(=O)[C@@H](NC(=O)[C@H](Cc1c[nH]cn1)NC(=O)[C@H](CC(C)C)NC(=O)[C@H](CCC(N)=O)NC(=O)[C@@H](N)CC(C)C)C(C)C)C(C)C)C(=O)N[C@@H](CCCNC(=N)N)C(=O)N[C@@H](CO)C(=O)N[C@@H](CC(C)C)C(=O)N[C@H](C(=O)N[C@H](C(=O)N[C@@H](CC(C)C)C(=O)N[C@@H](CC(C)C)C(=O)N[C@@H](CCCNC(=N)N)C(=O)N[C@@H](C)C(=O)N[C@@H](CC(C)C)C(=O)NCC(=O)O)[C@@H](C)O)[C@@H](C)O` [ML1] (H-LQLHVDKAVSGLRSLTTLLRALG-OH; N-terminus and C-terminus assumed), where the note is “Table 8”, the Kd (as a rule, a measure of binding affinity in units of concentration) amounted to 6.46 µM; the Ka is given as 1.311 × 10^3; the “dissociation rate constant (koff)” value is 8.5 × 10^−3. For the setting “Table 9”, the Ka turned out to be 1310.8 and the “dissociation rate constant (koff)” value was determined as 8.47E−03.
Take `CC[C@H](C)[C@H](NC(=O)[C@H](C)NC(=O)[C@H](CCC(=O)O)NC(=O)[C@H](CCCCN)NC(=O)[C@H](CCC(N)=O)NC(=O)[C@H](C)NC(=O)CNC(=O)[C@H](CC(C)C)NC(=O)[C@H](C)NC(=O)[C@H](CCCNC(=N)N)NC(=O)[C@H](CC(C)C)NC(=O)[C@H](CC(C)C)NC(=O)[C@@H](NC(=O)[C@@H](NC(=O)[C@H](CC(C)C)NC(=O)[C@H](CO)NC(=O)[C@H](CCCNC(=N)N)NC(=O)[C@H](CC(C)C)NC(=O)CNC(=O)[C@H](CO)NC(=O)[C@@H](NC(=O)[C@H](C)NC(=O)[C@H](CCCCN)NC(=O)[C@@H](N)CC(=O)O)C(C)C)[C@@H](C)O)[C@@H](C)O)C(=O)O` [ML4] (H-DKAVSGLRSLTTLLRALGAQKEAI-OH; N-terminus and C-terminus assumed): under “Table 8”, the Ka is reported as 2.2 × 10^2 and the “dissociation rate constant (koff)” value is on record as 2.2 × 10^−3.
For `CC[C@H](C)[C@H](NC(=O)[C@H](CC(C)C)NC(=O)[C@@H](NC(=O)[C@@H](NC(=O)[C@H](CC(C)C)NC(=O)[C@@H](NC(=O)[C@H](CCCNC(=N)N)NC(=O)[C@H](CC(C)C)NC(=O)CNC(=O)[C@@H](NC(=O)[C@H](C)NC(=O)[C@H](C)NC(=O)[C@H](CCCCN)NC(=O)[C@H](CC(=O)O)NC(=O)[C@@H](NC(=O)[C@H](CCC(=O)O)NC(=O)[C@H](CC(C)C)NC(=O)[C@H](CC(=O)O)NC(=O)[C@H](CC(C)C)NC(=O)[C@H](C)NC(=O)[C@H](CCC(=O)O)NC(=O)[C@@H](N)CC(=O)O)C(C)C)[C@@H](C)O)[C@@H](C)O)[C@@H](C)O)[C@@H](C)O)C(=O)N[C@@H](CCCNC(=N)N)C(=O)N[C@@H](C)C(=O)N[C@@H](CC(C)C)C(=O)O` [ML7-1] (H-DEALDLEVDKAATGLRTLTTLIRAL-OH; N-terminus and C-terminus assumed), under “Table 8”, the Ka is 2.26 × 10^2 and the “dissociation rate constant (koff)” value was 1.44 × 10^−2.

These data come from patent US10808018B2, “Erythropoietin-derived peptides and methods of protecting cells from oxidative damage induced by reactive oxygen species” (SYLUS CO., LTD., priority 2017, dated 2020).
